Our source for the gastric lesion area and lesion inhibition rate values is patent publication US20150011623A1, “Pharmaceutical Composition Containing as Active Ingredient Extract From Bark of Liriodendron Tulipifera” (CHO DANG PHARM CO., LTD., priority 2012, published 2015).

Marks after values point to notes of the source that are not given here.

The experiment has as its system acetic acid inducing stomach ulcer model. Put plainly: acetic acid inducing stomach ulcer model. Conditions: for gastric lesion area: oral 30 mg/kg once a day for 10 days after operation; for lesion inhibition rate: oral 30 mg/kg once a day for 10 days, vs control group. It is filed as in vivo, male white rats. An excerpt: Efficacy of extract from bark of Liriodendron tulipifera obtained in Preparation Example 1 has been measured according to acetic acid inducing stomach ulcer model. Only solvent has been administered into control group, while extract from the bark of Liriodendron tulipifera has been administered into experimental group. Further, ranitidine and rebamipide used for drug for treating stomach ulcer have been also administered into experimental group. The experiment has been carried out according to the method disclosed in Okabe and Pfeifferi, Did. Dis. 17, pp. 619-628, 1972. 250 g weights of male white rats have been anesthetized with ether and the stomach has been exposed. 50 μl of 20% acetic acid has been injected into the subserosa in fundus of stomach using microliter syringe. Then, the abdomen of rat has been sutured. The drug has been orally administered into the rats at 10:00 am once a day for 10 days after operation. After 4 hour from final administration, animals have been sacrificed by ether. After removing the stomach of rat, the stomach has been spread out. The lesion area has been measured using the photo from digital camera. Computer program Image J 1.38 (NIH, Bethesda, Md.) has been applied for measuring gastric lesion area (mm^2) The lesion inhibition rate and 50% effective dose (ED50) have been calculated as the same manner of HCl-EtOH model.

In the case of `CNC(=C[N+](=O)[O-])NCCSCc1ccc(CN(C)C)o1` [ranitidine], the gastric lesion area is 34.8 ± 4.83* mm^2 and the lesion inhibition rate is 47.1%.

`O=C(NC(Cc1cc(=O)[nH]c2ccccc12)C(=O)O)c1ccc(Cl)cc1` (stereo not shown) [rebamipide] gave a gastric lesion area of 40.1 ± 7.43 mm^2 and a lesion inhibition rate of 39.1%.
